Assay results reported in patent US20220315558A1, “POLYMORPHS OF 1-(2-((((TRANS)-3-FLUORO-1-(3-FLUOROPYRIDIN-2-YL)CYCLOBUTYL)METHYL)AMINO)PYRIMIDIN-5-YL)-1H-PYRROLE-3-CARBOXAMIDE” (Cytokinetics, Inc., priority 2019, published 2022).

Legend:
Assay type in all cases: physicochemical
[1] = Competitive slurry experiments between Form I and Form IV; conditions: as Example 3 (methanol, 4 to 60° C.), 12 days, XRPD
Description: (§1) A mechanical mixture of Form I and Form II was prepared. This mixture was analyzed by XRPD for reference. The mixture (ca. 25 mg) was suspended in methanol, and parallel maturation experiments were set up at a constant temperature, in the range of 4 to 60° C., for a total of 12 days. The resulting solids were filtered and analyzed by XRPD.
Competitive slurry experiments between Form I and Form IV were conducted in a manner similar to that described in Example 3.

[2] = Competitive slurry experiments between Form I and Form II; conditions: methanol, constant temperature 4 to 60° C., 12 days, XRPD
Description: as §1

[3] = Storage stability for 7 days at controlled temperature/RH, checked by XRPD
Description: Ray Powder Diffraction patterns were collected on a Bruker D8 diffractometer using Cu Kα radiation (40 kV, 40 mA), θ-2θ goniometer, and divergence of V4 and receiving slits, a Ge monochromator and a Lynxeye detector. The instrument is performance checked using a certified Corundum standard (NIST 1976). The software used for data collection was Diffrac Plus XRD Commander v2.6.1 and the data were analysed and presented using Diffrac Plus EVA v13.0.0.2 or v15.0.0.0.
Samples were run under ambient conditions as flat plate specimens using powder as received. The sample was gently packed into a cavity cut into polished, zero-background (510) silicon wafer. The sample was rotated in its own plane during analysis. The details of the data collection are: • Angular range: 2 to 42° 2θ • Step size: 0.05° 2θ • Collection time: 0.5 s/step
Polymorphic Form I of 1-(2-((((trans)-3-fluoro-1-(3-fluoropyridin-2-yl)cyclobutyl)methyl)amino)pyrimidin-5-yl)-1H-pyrrole-3-carboxamide was analyzed by XRPD, DSC, TGA, and GVS. […] Chemical stability study of Form I was also performed. XRPD patterns were measured after storage of samples of Form I for 7 days at 40° C./75% RH and 25° C./97% RH.

[4] = Solubility of Form I in solvents at 50° C. (polymorph screening); design: key: ✓ YES; x NO
Description: Polymorphic Form I of 1-(2-((((trans)-3-fluoro-1-(3-fluoropyridin-2-yl)cyclobutyl)methyl)amino)pyrimidin-5-yl)-1H-pyrrole-3-carboxamide was weighed into vials, and the stated solvents were added, in increasing portions, at 50° C. With each addition, the vials were allowed to shake for ˜20 minutes. After the last addition, any suspensions observed were subjected to heat/cool cycles, between room temperature and 50° C., 4 hours at each condition, for 1 week. Solutions were allowed to slowly evaporate.
Aliquots were filtered by suction after 7 days maturation and analysed by XRPD (low resolution, air-dried only). Most solutions yielded solids after 9 days and these were analyzed by XRPD as well.

[5] = Gravimetric Vapour Sorption (GVS) moisture sorption isotherm; conditions: over 0-90% RH range, 25° C.
Description: GVS data were collected using a SMS DVS Intrinsic moisture sorption analyser, controlled by DVS Intrinsic Control software v1.0.0.30. The sample temperature was maintained at 25° C. by the instrument controls. The humidity was controlled by mixing streams of dry and wet nitrogen, with a total flow rate of 200 ml/min The relative humidity was measured by a calibrated Rotronic probe (dynamic range of 1.0-100% RH), located near the sample. The weight change, (mass relaxation) of the sample as a function of % RH was constantly monitored by the microbalance (accuracy ±0.005 mg).
Typically 5-20 mg of sample was placed in a tared mesh stainless steel basket under ambient conditions. The sample was loaded and unloaded at 40% RH and 25° C. (typical room conditions). A moisture sorption isotherm was performed as outlined below (2 scans giving 1 complete cycle). The standard isotherm was performed at 25° C. at 10% RH intervals over a 0-90% RH range. Data analysis was undertaken in Microsoft Excel using DVS Analysis Suite v6.0.

relative stability versus Form IV (competitive slurry) [1]: more stable | relative stability versus Form II (competitive slurry) [2]: more stable | changes in XRPD pattern after storage ([3]; 7 days at 25° C./97% RH): No visible changes | changes in XRPD pattern after storage ([3]; 7 days at 40° C./75% RH): No visible changes | Solubility (volumes) (✓ YES; x NO) at 50° C. ([4]; 1,4-Dioxane, 10 volumes): x | Solubility (volumes) (✓ YES; x NO) at 50° C. ([4]; 1,4-Dioxane, 25 volumes): x | Solubility (volumes) (✓ YES; x NO) at 50° C. ([4]; 1,4-Dioxane, 50 volumes): x | Solubility (volumes) (✓ YES; x NO) at 50° C. ([4]; 1-Butanol, 10 volumes): x | Solubility (volumes) (✓ YES; x NO) at 50° C. ([4]; 1-Butanol, 25 volumes): x | Solubility (volumes) (✓ YES; x NO) at 50° C. ([4]; 1-Butanol, 50 volumes): x | Solubility (volumes) (✓ YES; x NO) at 50° C. ([4]; 1-Propanol, 10 volumes): x | Solubility (volumes) (✓ YES; x NO) at 50° C. ([4]; 1-Propanol, 25 volumes): x | Solubility (volumes) (✓ YES; x NO) at 50° C. ([4]; 1-Propanol, 50 volumes): x | Solubility (volumes) (✓ YES; x NO) at 50° C. ([4]; 2-Propanol, 10 volumes): x | Solubility (volumes) (✓ YES; x NO) at 50° C. ([4]; 2-Propanol, 25 volumes): x | Solubility (volumes) (✓ YES; x NO) at 50° C. ([4]; 2-Propanol, 50 volumes): x | Solubility (volumes) (✓ YES; x NO) at 50° C. ([4]; Acetone, 10 volumes): x | Solubility (volumes) (✓ YES; x NO) at 50° C. ([4]; Acetone, 25 volumes): x | Solubility (volumes) (✓ YES; x NO) at 50° C. ([4]; Acetone, 50 volumes): x | Solubility (volumes) (✓ YES; x NO) at 50° C. ([4]; Acetonitrile, 10 volumes): ✓ | Solubility (volumes) (✓ YES; x NO) at 50° C. ([4]; Anisole, 10 volumes): x | Solubility (volumes) (✓ YES; x NO) at 50° C. ([4]; Anisole, 25 volumes): x | Solubility (volumes) (✓ YES; x NO) at 50° C. ([4]; Anisole, 50 volumes): x | Solubility (volumes) (✓ YES; x NO) at 50° C. ([4]; Butyl acetate (BuOAc), 10 volumes): x | Solubility (volumes) (✓ YES; x NO) at 50° C. ([4]; Butyl acetate (BuOAc), 25 volumes): x | Solubility (volumes) (✓ YES; x NO) at 50° C. ([4]; Butyl acetate (BuOAc), 50 volumes): x | Solubility (volumes) (✓ YES; x NO) at 50° C. ([4]; Dichloromethane (DCM), 10 volumes): x | Solubility (volumes) (✓ YES; x NO) at 50° C. ([4]; Dichloromethane (DCM), 25 volumes): x | Solubility (volumes) (✓ YES; x NO) at 50° C. ([4]; Dichloromethane (DCM), 50 volumes): x | Solubility (volumes) (✓ YES; x NO) at 50° C. ([4]; Dioxane/5% water, 10 volumes): x | Solubility (volumes) (✓ YES; x NO) at 50° C. ([4]; Dioxane/5% water, 25 volumes): x | Solubility (volumes) (✓ YES; x NO) at 50° C. ([4]; Dioxane/5% water, 50 volumes): ✓ | Solubility (volumes) (✓ YES; x NO) at 50° C. ([4]; Ethanol, 10 volumes): x | Solubility (volumes) (✓ YES; x NO) at 50° C. ([4]; Ethanol, 25 volumes): x | Solubility (volumes) (✓ YES; x NO) at 50° C. ([4]; Ethanol, 50 volumes): x | Solubility (volumes) (✓ YES; x NO) at 50° C. ([4]; Ethanol/5% water, 10 volumes): x | Solubility (volumes) (✓ YES; x NO) at 50° C. ([4]; Ethanol/5% water, 25 volumes): x | Solubility (volumes) (✓ YES; x NO) at 50° C. ([4]; Ethanol/5% water, 50 volumes): x | Solubility (volumes) (✓ YES; x NO) at 50° C. ([4]; Ethyl acetate, 10 volumes): x | Solubility (volumes) (✓ YES; x NO) at 50° C. ([4]; Ethyl acetate, 25 volumes): x | Solubility (volumes) (✓ YES; x NO) at 50° C. ([4]; Ethyl acetate, 50 volumes): x | Solubility (volumes) (✓ YES; x NO) at 50° C. ([4]; Heptane, 10 volumes): x | Solubility (volumes) (✓ YES; x NO) at 50° C. ([4]; Heptane, 25 volumes): x | Solubility (volumes) (✓ YES; x NO) at 50° C. ([4]; Heptane, 50 volumes): x | Solubility (volumes) (✓ YES; x NO) at 50° C. ([4]; Isopropanol (IPA)/5% water, 10 volumes): x | Solubility (volumes) (✓ YES; x NO) at 50° C. ([4]; Isopropanol (IPA)/5% water, 25 volumes): x | Solubility (volumes) (✓ YES; x NO) at 50° C. ([4]; Isopropanol (IPA)/5% water, 50 volumes): x | Solubility (volumes) (✓ YES; x NO) at 50° C. ([4]; Isopropyl acetate (IPAc), 10 volumes): x | Solubility (volumes) (✓ YES; x NO) at 50° C. ([4]; Isopropyl acetate (IPAc), 25 volumes): x | Solubility (volumes) (✓ YES; x NO) at 50° C. ([4]; Isopropyl acetate (IPAc), 50 volumes): x | Solubility (volumes) (✓ YES; x NO) at 50° C. ([4]; Methanol, 10 volumes): x | Solubility (volumes) (✓ YES; x NO) at 50° C. ([4]; Methanol, 25 volumes): x | Solubility (volumes) (✓ YES; x NO) at 50° C. ([4]; Methanol, 50 volumes): x | Solubility (volumes) (✓ YES; x NO) at 50° C. ([4]; Methyl ethyl ketone (MEK), 10 volumes): x | Solubility (volumes) (✓ YES; x NO) at 50° C. ([4]; Methyl ethyl ketone (MEK), 25 volumes): x | Solubility (volumes) (✓ YES; x NO) at 50° C. ([4]; Methyl ethyl ketone (MEK), 50 volumes): x | Solubility (volumes) (✓ YES; x NO) at 50° C. ([4]; Methyl isobutyl ketone (MIBK), 10 volumes): x | Solubility (volumes) (✓ YES; x NO) at 50° C. ([4]; Methyl isobutyl ketone (MIBK), 25 volumes): x | Solubility (volumes) (✓ YES; x NO) at 50° C. ([4]; Methyl isobutyl ketone (MIBK), 50 volumes): x | Solubility (volumes) (✓ YES; x NO) at 50° C. ([4]; Nitromethane, 10 volumes): x | Solubility (volumes) (✓ YES; x NO) at 50° C. ([4]; Nitromethane, 25 volumes): x | Solubility (volumes) (✓ YES; x NO) at 50° C. ([4]; Nitromethane, 50 volumes): x | Solubility (volumes) (✓ YES; x NO) at 50° C. ([4]; THF/5% water, 10 volumes): x | Solubility (volumes) (✓ YES; x NO) at 50° C. ([4]; THF/5% water, 25 volumes): Cloudy | Solubility (volumes) (✓ YES; x NO) at 50° C. ([4]; THF/5% water, 50 volumes): ✓ | Solubility (volumes) (✓ YES; x NO) at 50° C. ([4]; Tert-butyl methyl ether (TBME), 10 volumes): x | Solubility (volumes) (✓ YES; x NO) at 50° C. ([4]; Tert-butyl methyl ether (TBME), 25 volumes): x | Solubility (volumes) (✓ YES; x NO) at 50° C. ([4]; Tert-butyl methyl ether (TBME), 50 volumes): x | Solubility (volumes) (✓ YES; x NO) at 50° C. ([4]; Tetrahydrofuran (THF), 10 volumes): x | Solubility (volumes) (✓ YES; x NO) at 50° C. ([4]; Tetrahydrofuran (THF), 25 volumes): x | Solubility (volumes) (✓ YES; x NO) at 50° C. ([4]; Tetrahydrofuran (THF), 50 volumes): x | Solubility (volumes) (✓ YES; x NO) at 50° C. ([4]; Toluene, 10 volumes): x | Solubility (volumes) (✓ YES; x NO) at 50° C. ([4]; Toluene, 25 volumes): x | Solubility (volumes) (✓ YES; x NO) at 50° C. ([4]; Toluene, 50 volumes): x | Solubility (volumes) (✓ YES; x NO) at 50° C. ([4]; Water, 10 volumes): x | Solubility (volumes) (✓ YES; x NO) at 50° C. ([4]; Water, 25 volumes): x | Solubility (volumes) (✓ YES; x NO) at 50° C. ([4]; Water, 50 volumes): x | moisture uptake as determined by GVS [5]: less than 0.07%
SMILES: NC(=O)c1ccn(-c2cnc(NC[C@]3(c4ncccc4F)C[C@H](F)C3)nc2)c1 [Form I, 1-(2-((((trans)-3-fluoro-1-(3-fluoropyridin-2-yl)cyclobutyl)methyl)amino)pyrimidin-5-yl)-1H-pyrrole-3-carboxamide]
